“And” between values parts separate entries of the source, which are not always exact repeats. Equal values may be shown once. Inconclusive results and toxic doses are left out.
System: P388 leukemia ip, CD2F1 mice, survival T/C
Assay: NCI In Vivo Anticancer Drug Screen. Data for tumor model P388 Leukemia (intraperitoneal) in CD2F1 (CDF1) mice
Conditions: endpoint: median survival time, higher = longer survival
Procedure, shortened: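 Mice carrying the transplanted tumor received test compound or vehicle. Survival was recorded in each group, and the value is the treated-group measurement divided by that of the vehicle-treated control group.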

[1] = dose: 50.0 mg/kg/injection, schedule: Q04DX003 (ip), vehicle: saline with Tween-80
[2] = dose: 25.0 mg/kg/injection, schedule: Q01DX009 (ip), vehicle: saline with Tween-80
[3] = dose: 50.0 mg/kg/injection, schedule: Q01DX009 (ip), vehicle: saline with Tween-80
[4] = dose: 100.0 mg/kg/injection, schedule: Q01DX009 (ip), vehicle: saline with Tween-80
[5] = dose: 100.0 mg/kg/injection, schedule: Q04DX003 (ip), vehicle: saline with Tween-80
[6] = dose: 50.0 mg/kg/injection, schedule: Q01DX009 (ip), vehicle: Klucel (hydroxypropylcellulose) (HPC)
[7] = dose: 100.0 mg/kg/injection, schedule: Q01DX009 (ip), vehicle: Klucel (hydroxypropylcellulose) (HPC)
[8] = dose: 200.0 mg/kg/injection, schedule: Q01DX009 (ip), vehicle: Klucel (hydroxypropylcellulose) (HPC)
[9] = dose: 50.0 mg/kg/injection, schedule: Q01DX005 (ip), vehicle: saline with Tween-80
[10] = dose: 100.0 mg/kg/injection, schedule: Q01DX005 (ip), vehicle: saline with Tween-80
[11] = dose: 200.0 mg/kg/injection, schedule: Q01DX005 (ip), vehicle: saline with Tween-80
[12] = dose: 50.0 mg/kg/injection, schedule: Q01DX005 (ip), vehicle: Klucel (hydroxypropylcellulose) (HPC)
[13] = dose: 100.0 mg/kg/injection, schedule: Q01DX005 (ip), vehicle: Klucel (hydroxypropylcellulose) (HPC)
[14] = dose: 200.0 mg/kg/injection, schedule: Q01DX005 (ip), vehicle: Klucel (hydroxypropylcellulose) (HPC)
[15] = dose: 50.0 mg/kg/injection, schedule: Q01DX009 (ip), vehicle: saline
[16] = dose: 200.0 mg/kg/injection, schedule: Q01DX009 (ip), vehicle: saline with Tween-80

O.O.[Cl][Pt+2][Cl].[NH-]C1CC2CCC1C2.[NH-]C1CC2CCC1C2 (stereo unspecified) was tested, and the T/C (dose: 33.0 mg/kg/injection, schedule: Q04DX003 (ip), vehicle: saline with Tween-80) was 154 % of control and the T/C [1] was 150 % of control.
In the case of CCN(C)C12CN3CN(CN(C3)C1)C2, the T/C (dose: 100.0 mg/kg/injection, schedule: Q01DX001 (ip), vehicle: saline) is reported as 101 % of control, the T/C (dose: 200.0 mg/kg/injection, schedule: Q01DX001 (ip), vehicle: saline) is reported as 110 % of control and the T/C (dose: 400.0 mg/kg/injection, schedule: Q01DX001 (ip), vehicle: saline) is reported as 102 % of control.
With CCCCCCCCCCCCCCCCCC1=NCCN1CCN the T/C [2] was 100 % of control, the T/C (dose: 25.0 mg/kg/injection, schedule: Q04DX003 (ip), vehicle: saline with Tween-80) was 100 % of control and the T/C [3] was 104 % of control. The T/C [1] was 109 % of control, the T/C [4] was 109 % of control and the T/C [5] was 95 % of control.
CCCCCCCCCCCCCCCCCC(=O)Nc1ncc([N+](=O)[O-])s1 was tested, and the T/C [6] was 106 % of control, the T/C [7] was 101 % of control and the T/C [8] was 101 % of control.
Nc1cc(-c2ccccc2)nn1-c1nnc(-c2ccccc2)c(-c2ccccc2)n1 was tested, and the T/C [9] was 95 % of control, the T/C [10] was 100 % of control and the T/C [11] was 95 % of control.
In the case of O=C1C=CC(=Nc2cc(Br)c(O)c(Br)c2)C=C1, the T/C (dose: 12.5 mg/kg/injection, schedule: Q01DX005 (ip), vehicle: saline) is reported as 103 % of control, the T/C (dose: 25.0 mg/kg/injection, schedule: Q01DX005 (ip), vehicle: saline) is reported as 99 % of control and the T/C (dose: 50.0 mg/kg/injection, schedule: Q01DX005 (ip), vehicle: saline) is reported as 89 % of control and 95 % of control.
In the case of O=c1c2ccccc2c(=O)n2n1C1C=CC2C1, the T/C [12] is reported as 107 % of control, the T/C [13] is reported as 105 % of control and the T/C [14] is reported as 100 % of control.
CCOC(=O)/C(C=NC1CC(N=C/C(C(=O)OCC)=C(\C)O)CC(N=C/C(C(=O)OCC)=C(\C)O)C1)=C(/C)O (stereo unspecified) was tested, and the T/C (dose: 6.25 mg/kg/injection, schedule: Q01DX009 (ip), vehicle: Klucel (hydroxypropylcellulose) (HPC)) was 106 % of control, the T/C (dose: 12.5 mg/kg/injection, schedule: Q01DX009 (ip), vehicle: Klucel (hydroxypropylcellulose) (HPC)) was 103 % of control and the T/C (dose: 25.0 mg/kg/injection, schedule: Q01DX009 (ip), vehicle: Klucel (hydroxypropylcellulose) (HPC)) was 97 % of control. The T/C [6] was 93 % of control.
CN1C(=O)NC(C)(c2cccc(N(CCCl)CCCl)c2)C1=O (stereo unspecified) was tested, and the T/C [6] was 158 % of control, the T/C [7] was 177 % of control and the T/C [8] was 160 % of control and 205 % of control.
In the case of COC1=C(OC)C(=O)C(SCCCc2ccccc2)=CC1=O, the T/C (dose: 12.5 mg/kg/injection, schedule: Q04DX002 (ip), vehicle: saline with Tween-80) is reported as 114 % of control, the T/C (dose: 25.0 mg/kg/injection, schedule: Q04DX002 (ip), vehicle: saline with Tween-80) is reported as 112 % of control and the T/C (dose: 50.0 mg/kg/injection, schedule: Q04DX002 (ip), vehicle: saline with Tween-80) is reported as 122 % of control.
With FC(F)(F)c1ccc(C2(c3ccccc3)C=C(c3ccccc3)SC(c3ccccc3)=C2)cc1 the T/C [6] was 102 % of control, the T/C [7] was 94 % of control and the T/C [8] was 97 % of control.
With CC(=O)c1c(O)c(C)c(O)c2c1OC1=CC(=O)C(C(C)=O)C(=O)C12C (stereo unspecified) the T/C (dose: 6.25 mg/kg/injection, schedule: Q01DX009 (ip), vehicle: saline with Tween-80) was 100 % of control and 122 % of control, the T/C (dose: 12.5 mg/kg/injection, schedule: Q01DX009 (ip), vehicle: saline with Tween-80) was 115 % of control and 97 % of control and the T/C (dose: 12.5 mg/kg/injection, schedule: Q01DX009 (ip), vehicle: saline) was 97 % of control. For the same compound, the T/C [2] was 101 % of control and 103 % of control (2×) and the T/C [15] was 109 % of control and 111 % of control.
With O=C(NCCCl)NCCCl the T/C (dose: 10.0 mg/kg/injection, schedule: Q01DX009 (ip), vehicle: saline) was 105 % of control and 108 % of control, the T/C (dose: 20.0 mg/kg/injection, schedule: Q01DX009 (ip), vehicle: saline) was 101 % of control and 102 % of control and the T/C (dose: 40.0 mg/kg/injection, schedule: Q01DX009 (ip), vehicle: saline) was 104 % of control and 108 % of control. The T/C (dose: 80.0 mg/kg/injection, schedule: Q01DX009 (ip), vehicle: saline) was 102 % of control and 109 % of control, the T/C (dose: 160.0 mg/kg/injection, schedule: Q01DX009 (ip), vehicle: saline) was 101 % of control and 104 % of control and the T/C (dose: 320.0 mg/kg/injection, schedule: Q01DX009 (ip), vehicle: saline) was 102 % of control and 106 % of control.
CCCCOP(=O)(Nc1ccccc1)OCCCC was tested, and the T/C [4] was 110 % of control, the T/C [16] was 112 % of control and the T/C (dose: 400.0 mg/kg/injection, schedule: Q01DX009 (ip), vehicle: saline with Tween-80) was 110 % of control.
For CC1=CC(O)(c2ccccn2)P(=O)(c2ccccc2)C=C1C (stereo unspecified), the T/C (dose: 60.0 mg/kg/injection, schedule: Q01DX005 (ip), vehicle: Klucel (hydroxypropylcellulose) (HPC)) was 115 % of control, the T/C (dose: 120.0 mg/kg/injection, schedule: Q01DX005 (ip), vehicle: Klucel (hydroxypropylcellulose) (HPC)) was 111 % of control and the T/C (dose: 240.0 mg/kg/injection, schedule: Q01DX005 (ip), vehicle: Klucel (hydroxypropylcellulose) (HPC)) was 99 % of control.
With O=C1c2cc(O)c(O)cc2C(=O)c2cc3c(cc21)OCO3 the T/C (dose: 60.0 mg/kg/injection, schedule: Q01DX005 (ip), vehicle: saline with Tween-80) was 97 % of control, the T/C (dose: 120.0 mg/kg/injection, schedule: Q01DX005 (ip), vehicle: saline with Tween-80) was 90 % of control and the T/C (dose: 240.0 mg/kg/injection, schedule: Q01DX005 (ip), vehicle: saline with Tween-80) was 90 % of control.
[Cu+2].[O-]c1ccccc1C=NCC(O)CN=Cc1ccccc1[O-] (stereo unspecified) was tested, and the T/C (dose: 3.75 mg/kg/injection, schedule: Q01DX005 (ip), vehicle: saline with Tween-80) was 97 % of control and the T/C (dose: 7.5 mg/kg/injection, schedule: Q01DX005 (ip), vehicle: saline with Tween-80) was 104 % of control.
In the case of Cc1nn(C(N)=S)c(C)c1N=Nc1ccc(F)cc1, the T/C (dose: 25.0 mg/kg/injection, schedule: Q01DX005 (ip), vehicle: Klucel (hydroxypropylcellulose) (HPC)) is reported as 96 % of control, the T/C [12] is reported as 102 % of control and the T/C [13] is reported as 90 % of control.
With CC(=O)OCC(C)(C)COC1OCN(C(C)(C)C)CC1(C)C (stereo unspecified) the T/C (dose: 10.0 mg/kg/injection, schedule: Q01DX009 (ip), vehicle: saline with Tween-80) was 94 % of control, the T/C (dose: 20.0 mg/kg/injection, schedule: Q01DX009 (ip), vehicle: saline with Tween-80) was 104 % of control and the T/C (dose: 40.0 mg/kg/injection, schedule: Q01DX009 (ip), vehicle: saline with Tween-80) was 110 % of control.
With NC(=O)N=C(N)N the T/C [12] was 106 % of control, the T/C [13] was 98 % of control and the T/C [14] was 101 % of control and 106 % of control.
With CCCCCCCCCCCCCCC[N+]1([O-])CCOCC1 the T/C [15] was 90 % of control and the T/C (dose: 100.0 mg/kg/injection, schedule: Q01DX009 (ip), vehicle: saline) was 91 % of control.
With COc1c2ccccc2c(OC)c2c(OC(C)=O)c3c(c(OC(C)=O)c12)CC=CC3 the T/C (dose: 3.13 mg/kg/injection, schedule: Q01DX009 (ip), vehicle: other) was 96 % of control, the T/C (dose: 6.25 mg/kg/injection, schedule: Q01DX009 (ip), vehicle: other) was 104 % of control and the T/C (dose: 25.0 mg/kg/injection, schedule: Q01DX009 (ip), vehicle: other) was 93 % of control. For the same compound, the T/C (dose: 50.0 mg/kg/injection, schedule: Q01DX009 (ip), vehicle: other) was 96 % of control.
In the case of O=C(O)CSC(c1ccccc1)(c1ccc(-c2ccccc2)cc1)c1cccc2ccccc12 (stereo unspecified), the T/C [9] is reported as 95 % of control, the T/C [10] is reported as 109 % of control and the T/C [11] is reported as 109 % of control.
In the case of CN(C)CCO[Si](C)(C)C[Si](C)(C)OCCN(C)C, the T/C (dose: 60.0 mg/kg/injection, schedule: Q01DX005 (ip), vehicle: saline) is reported as 107 % of control, the T/C (dose: 120.0 mg/kg/injection, schedule: Q01DX005 (ip), vehicle: saline) is reported as 102 % of control and the T/C (dose: 240.0 mg/kg/injection, schedule: Q01DX005 (ip), vehicle: saline) is reported as 108 % of control.
With Nc1c(Cl)cc(C(=O)O)cc1Cl the T/C [2] was 95 % of control, the T/C [3] was 90 % of control and the T/C [4] was 87 % of control. The T/C [16] was 100 % of control.
In the case of c1ccc(C2=NCC(c3ccccc3)(C3(c4ccccc4)SCCCS3)O2)cc1 (stereo unspecified), the T/C [5] is reported as 95 % of control, the T/C (dose: 200.0 mg/kg/injection, schedule: Q04DX003 (ip), vehicle: saline with Tween-80) is reported as 97 % of control and the T/C (dose: 400.0 mg/kg/injection, schedule: Q04DX003 (ip), vehicle: saline with Tween-80) is reported as 91 % of control.

Reference: PubChem BioAssay AID330 (DTP/NCI, 2004)
